From ChEMBL document CHEMBL5550185, “Targeting hTERT Promoter G-Quadruplex DNA Structures with Small-Molecule Ligand to Downregulate hTERT Expression for Triple-Negative Breast Cancer Therapy” (J Med Chem, 2024)
pIC50, pKd: −log10 of the molar value. Calls of active or inactive are those of the source. The rule behind the calls is not given here.

Legend:
[1] = tested on: DNA; experiment: Binding affinity to Dt21 ssDNA (unknown origin) assessed as thermal stability by measuring change in melting temperature at 400 uM […]; assay type: nucleic-acid assay
[2] = tested on: dsDNA; experiment: Binding affinity to 4a4t duplex DNA (unknown origin) assessed as thermal stability by measuring change in melting temperature at 400 uM […]; assay type: nucleic-acid assay
[3] = tested on: HeLa; experiment: Cytotoxicity against telomerase-positive human HeLa cells assessed as inhibition of cell growth incubated for 48 hrs by MTT assay; assay type: functional, cell-based
[4] = tested on: Quadruplex DNA; experiment: Binding affinity to CKIT-2 G4 DNA (unknown origin) assessed as change in gibbs free energy at 400 uM by ITC analysis; assay type: nucleic-acid assay
[5] = tested on: Quadruplex DNA; experiment: Binding affinity to c-MYC Pu27 G4 DNA (unknown origin) assessed as thermal stability by measuring change in melting temperature at 400 uM […]; assay type: nucleic-acid assay
[6] = tested on: Quadruplex DNA; experiment: Binding affinity to c-MYC Pu27 G4 DNA (unknown origin) assessed as change in enthalpy at 400 uM by ITC analysis; assay type: nucleic-acid assay
[7] = tested on: A549; experiment: Cytotoxicity against telomerase-positive human A549 cells assessed as inhibition of cell growth incubated for 48 hrs by MTT assay; assay type: functional, cell-based; details: A549, 48 h
[8] = tested on: Quadruplex DNA; experiment: Binding affinity to Telo21 G4 DNA (unknown origin) assessed as thermal stability by measuring change in melting temperature at 400 uM […]; assay type: nucleic-acid assay
[9] = tested on: Quadruplex DNA; experiment: Binding affinity to Telo21 G4 DNA (unknown origin) assessed as change in enthalpy at 400 uM by ITC analysis; assay type: nucleic-acid assay
[10] = biological target: Quadruplex DNA; experiment: Binding affinity to hTERT G4 DNA assessed as dissociation constant by ITC analysis; assay type: nucleic-acid assay, Homo sapiens
[11] = Selectivity ratio of binding affinity to human TERT G4 DNA to binding affinity to RET G4 DNA (unknown origin)
[12] = Selectivity ratio of binding affinity to human TERT G4 DNA to binding affinity to Pu27 G4 DNA (unknown origin)
[13] = Selectivity ratio of binding affinity to human TERT G4 DNA to binding affinity to 4a4t duplex DNA (unknown origin)
[14] = tested on: Quadruplex DNA; experiment: Binding affinity to human TERT G4 DNA in Tris-HCl buffer at pH 7.4 assessed as increase in CD signal at 5 to 100 uM by circular dichroism spectrometer; assay type: nucleic-acid assay; details: dose 5-100 µM
[15] = tested on: MDA-MB-231; experiment: Downregulation of c-MYC mRNA expression in human MDA-MB-231 cells at 0 to 1.5 uM measured after 48 hrs by qRT-PCR analysis; assay type: functional, cell-based; details: dose 0-1.5 µM
[16] = tested on: MDA-MB-231; experiment: Induction of telomere dysfunction in human MDA-MB-231 cells assessed as cellular senescence at 0.2 uM measured after 10 days by SA-beta-gal staining based analysis; assay type: functional, cell-based; details: time 10.0 day
[17] = tested on: MDA-MB-231; experiment: Induction of cell cycle arrest in human MDA-MB-231 cells assessed as accumulation of cells at S phase at 0.5 to 1.5 uM measured after 48 hrs by 7-aminoactinomycin D/RNase staining based flow cytometry analysis (reference value: 23.4%); assay type: functional; details: dose 0.5-1.5 µM
[18] = tested on: MDA-MB-231; experiment: Inhibition of hTERT expression in human MDA-MB-231 cells assessed as reduction in pink foci in cytoplasm at 0.5 uM incubated for 48 hrs in presence of TBHP at 200 uM by immunofluorescence analysis; assay type: functional, cell-based
[19] = tested on: MDA-MB-231; experiment: Induction of ferroptosis in human MDA-MB-231 cells assessed as disruption of iron metabolism by measuring increase in bright yellow fluorescent spots measured after 48 hrs by FerroOrange/Hoechst 33342 staining based confocal microscopic analysis; assay type: functional, cell-based; details: dose 0-1.5 µM
[20] = tested on: MDA-MB-231; experiment: Induction of ferroptosis in human MDA-MB-231 cells assessed as reduction in GPX4 protein expression at 0 to 1.5 uM measured after 48 hrs by Western blot analysis; assay type: functional, cell-based; details: dose 0-1.5 µM
[21] = tested on: MDA-MB-231; experiment: Induction of autophagy in human MDA-MB-231 cells assessed as upregulation of LC3-II protein expression at 0 to 1.5 uM measured after 48 hrs by Western blot analysis; assay type: functional, cell-based; details: dose 0-1.5 µM
[22] = tested on: MDA-MB-231; experiment: Induction of autophagy in human MDA-MB-231 cells assessed as engulfment of damaged mitochondria by lysosomes by measuring lysosome-mitochondria colocalization at 0 to 1.5 uM measured after 48 hrs by LysoTracker Blue DND-22/MitoTracker Deep Red FM staining based confocal microscopic analysis; assay type: functional, cell-based; details: dose 0-1.5 µM
[23] = tested on: MDA-MB-231; experiment: Downregulation of ND1 gene expression in human MDA-MB-231 cells at 1 uM measured after 48 hrs by RNA-seq analysis; assay type: functional, cell-based
[24] = tested on: MDA-MB-231; experiment: Downregulation of ND3 gene expression in human MDA-MB-231 cells at 1 uM measured after 48 hrs by RNA-seq analysis; assay type: functional, cell-based
[25] = tested on: MDA-MB-231; experiment: Downregulation of ND6 gene expression in human MDA-MB-231 cells at 1 uM measured after 48 hrs by RNA-seq analysis; assay type: functional, cell-based
[26] = Upregulation of PLK1 gene expression in human MDA-MB-231 cells assessed as fold change at 1 uM measured after 48 hrs by RNA-seq analysis relative to control; assay type: functional
[27] = Upregulation of SGK1 gene expression in human MDA-MB-231 cells assessed as fold change at 1 uM measured after 48 hrs by RNA-seq analysis relative to control; assay type: functional
[28] = Upregulation of SKP2 gene expression in human MDA-MB-231 cells assessed as fold change at 1 uM measured after 48 hrs by RNA-seq analysis relative to control; assay type: functional
[29] = tested on: MDA-MB-231; experiment: Inhibition of hTERT expression at transcriptional level in human MDA-MB-231 cells at 1 uM measured after 48 hrs by RNA-seq analysis; assay type: functional, cell-based
[30] = Upregulation of NFATC4 gene expression in human MDA-MB-231 cells assessed as fold change at 1 uM measured after 48 hrs by RNA-seq analysis relative to control; assay type: functional
[31] = Upregulation of CALML6 gene expression in human MDA-MB-231 cells assessed as fold change at 1 uM measured after 48 hrs by RNA-seq analysis relative to control; assay type: functional
[32] = Upregulation of FTL gene expression in human MDA-MB-231 cells assessed as fold change at 1 uM measured after 48 hrs by RNA-seq analysis relative to control; assay type: functional
[33] = tested on: MDA-MB-231; experiment: Antitumor activity against human MDA-MB-231 cells xenografted in iv dosed female Balb/c mouse assessed as nuclear fragmentation in tumor administered via tail vein every 2 days for 16 days by H and E staining based analysis; assay type: functional, organism-based; details: dose 2-5 mg/kg, time 16.0 day
[34] = Toxicity in female Balb/c nude mouse xenografted with human MDA-MB-231 cells assessed as change in ALT level at 2 to 5 mg/kg, iv administered via tail vein every 2 days for 16 days; assay type: organism-based; details: in vivo, 384 h, dose 2-5 mg/kg, time 16 day
[35] = Toxicity in female Balb/c nude mouse xenografted with human MDA-MB-231 cells assessed as change in lymphocyte count at 2 to 5 mg/kg, iv administered via tail vein every 2 days for 16 days; assay type: organism-based; details: in vivo, 384 h, dose 2-5 mg/kg, time 16 day
[36] = Toxicity in female Balb/c nude mouse xenografted with human MDA-MB-231 cells assessed as pathological changes in liver at 2 to 5 mg/kg, iv administered via tail vein every 2 days for 16 days by H and E staining based analysis; assay type: organism-based; details: in vivo, 384 h, dose 2-5 mg/kg, time 16 day

C[n+]1c(/C=C/c2c[nH]c3ccccc23)cc(/C=C2\Sc3ccccc3N2CCCN2CCC(C(F)(F)F)CC2)c2ccccc21.[I-]
ΔTm [1]: -2.51 °C | ΔTm [2]: 1.65 °C | pIC50 [3]: 5.59 | deltaG [4]: -29.5 kJ/mol | ΔTm [5]: 2.59 °C | deltaH [6]: -10.2 kJ/mol | pIC50 [7]: 5.68 | ΔTm [8]: 8.85 °C | deltaH [9]: -4.56 kJ/mol | pKd [10]: 5.94 | Selectivity ratio [11]: 2 | Selectivity ratio [12]: 2 | Selectivity ratio [13]: 3 | Activity [14]: Active | Activity [15]: inactive | Activity [16]: Active | Activity [17]: 4.6% | inhibition [18]: Active | Activity [19]: Dose-Dependent Effect | Activity [20]: Active | Activity [21]: Active | Activity [22]: Active | Activity [23]: Active | Activity [24]: Active | Activity [25]: Active | fold change (FC) [26]: >2 | fold change (FC) [27]: >2 | fold change (FC) [28]: >2 | inhibition [29]: Active | fold change (FC) [30]: >2 | fold change (FC) [31]: >2 | fold change (FC) [32]: >2 | Activity [33]: Dose-Dependent Effect | Activity [34]: Non-Toxic | Activity [35]: Non-Toxic | Activity [36]: Non-Toxic
